Literature values, collected in article PMC7992120 (Nature chemical biology, 2018).

How the values were obtained:
[1] = system: human bradykinin 1 receptor (B1R); conditions: for affinity for B1R of peptides lacking N-terminal lysine (in words): no reference at the sentence (Fig. 1)
[2] = system: human bradykinin 2 receptor (B2R); conditions: for affinity for B2R (in words): agonist
[3] = system: B2R, "these residues" replaced by alanine or positively charged amino acids; conditions: replacement by alanine or positively charged amino acids
dog B1R = conditions: D^7.29 replaced by Asn

Substance | affinity for B2R, Figure 1 legend (in words) [2] | affinity for B2R (in words) [2] | affinity for B1R of peptides lacking N-terminal lysine (in words) ([1]; human B1R) | other results
KRPPGFSPL [DALK] | – | – | – | B1R antagonism / affinity (in words) ([1]; B1R antagonist): high-affinity antagonist for B1R
bradykinin (RPPGFSPFR; Bradykinin; UniProt P01042 381-389, looked up) [BK] | high-affinity ligands for B2R | high-affinity agonists | rather low affinity to the B1R | BK binding of mutant (in words) [3]: substantially impairs BK binding in B2R
desArg^9-bradykinin [DABK] | – | – | rather low affinity to the B1R | affinity for B2R of desArg peptides (in words) [2]: only weak binding affinity to the B2R; affinity for B1R, Figure 1 legend (in words) ([1]; human B1R): not DABK, binds with high affinity to B1R; selectivity between DAKD and DABK (in words) (dog B1R): no significant selectivity between DAKD and DABK
kallidin [KD] | high-affinity ligands for B2R | high-affinity agonists | – | –
